From PubChem BioAssay AID248 (DTP/NCI, 2004)
“And” between values parts separate entries of the source, which are not always exact repeats. Equal entries are not always repeated. Inconclusive results and toxic doses are left out.

Tested on: L1210 leukemia ip in BDF1 mice, survival T/C
Experiment: NCI In Vivo Anticancer Drug Screen. Data for tumor model L1210 Leukemia (intraperitoneal) in B6D2F1 (BDF1) mice
Conditions: endpoint: mean survival time, higher = longer survival
In short: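 Transplantable tumor model; survival measured in treated vs vehicle control mice. Value = treated/control.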

[1] = dose: 100.0 mg/kg/injection, schedule: Q01DX001 (ip), vehicle: saline
[2] = dose: 200.0 mg/kg/injection, schedule: Q01DX001 (ip), vehicle: saline
[3] = dose: 400.0 mg/kg/injection, schedule: Q01DX001 (ip), vehicle: saline
[4] = dose: 100.0 mg/kg/injection, schedule: Q01DX009 (ip), vehicle: saline with Tween-80
[5] = dose: 100.0 mg/kg/injection, schedule: Q04DX003 (ip), vehicle: saline with Tween-80
[6] = dose: 200.0 mg/kg/injection, schedule: Q01DX009 (ip), vehicle: saline with Tween-80
[7] = dose: 200.0 mg/kg/injection, schedule: Q04DX003 (ip), vehicle: saline with Tween-80
[8] = dose: 400.0 mg/kg/injection, schedule: Q01DX009 (ip), vehicle: saline with Tween-80
[9] = dose: 400.0 mg/kg/injection, schedule: Q04DX003 (ip), vehicle: saline with Tween-80
[10] = dose: 100.0 mg/kg/injection, schedule: Q04DX003 (ip), vehicle: saline
[11] = dose: 200.0 mg/kg/injection, schedule: Q04DX003 (ip), vehicle: saline
[12] = dose: 100.0 mg/kg/injection, schedule: Q04DX002 (ip), vehicle: Klucel (hydroxypropylcellulose) (HPC)
[13] = dose: 50.0 mg/kg/injection, schedule: Q01DX001 (ip), vehicle: carboxymethylcellulose (CMC)
[14] = dose: 100.0 mg/kg/injection, schedule: Q01DX001 (ip), vehicle: carboxymethylcellulose (CMC)
[15] = dose: 200.0 mg/kg/injection, schedule: Q01DX001 (ip), vehicle: carboxymethylcellulose (CMC)
[16] = dose: 400.0 mg/kg/injection, schedule: Q01DX001 (ip), vehicle: carboxymethylcellulose (CMC)
[17] = dose: 100.0 mg/kg/injection, schedule: Q01DX009 (ip), vehicle: Klucel (hydroxypropylcellulose) (HPC)
[18] = dose: 100.0 mg/kg/injection, schedule: Q04DX003 (ip), vehicle: Klucel (hydroxypropylcellulose) (HPC)
[19] = dose: 200.0 mg/kg/injection, schedule: Q01DX009 (ip), vehicle: Klucel (hydroxypropylcellulose) (HPC)
[20] = dose: 200.0 mg/kg/injection, schedule: Q04DX003 (ip), vehicle: Klucel (hydroxypropylcellulose) (HPC)
[21] = dose: 400.0 mg/kg/injection, schedule: Q01DX009 (ip), vehicle: Klucel (hydroxypropylcellulose) (HPC)
[22] = dose: 400.0 mg/kg/injection, schedule: Q04DX003 (ip), vehicle: Klucel (hydroxypropylcellulose) (HPC)

Structure (SMILES): CCOC(=O)CSc1ccc2c3c(cccc13)C(=O)OC2=O
- T/C (dose: 20.0 mg/kg/injection, schedule: Q01DX009 (ip), vehicle: other): 104 % of control
- T/C (dose: 40.0 mg/kg/injection, schedule: Q01DX009 (ip), vehicle: other): 98 % of control
- T/C (dose: 80.0 mg/kg/injection, schedule: Q01DX009 (ip), vehicle: other): 91 % of control
- T/C (dose: 87.5 mg/kg/injection, schedule: Q01DX009 (ip), vehicle: other): 92 % of control

Structure (SMILES): CC(=O)OCC1OC(n2cnc3c(=S)nc[nH]c32)C(OC(C)=O)C1OC(C)=O (centres undefined)
- T/C (dose: 6.5 mg/kg/injection, schedule: Q01DX Z (ip), vehicle: carboxymethylcellulose (CMC)): 122 % of control
- T/C (dose: 13.0 mg/kg/injection, schedule: Q01DX Z (ip), vehicle: carboxymethylcellulose (CMC)): 113 % of control
- T/C (dose: 40.0 mg/kg/injection, schedule: Q01DX Z (ip), vehicle: carboxymethylcellulose (CMC)): 151 % of control
- T/C (dose: 180.0 mg/kg/injection, schedule: Q01DX Z (ip), vehicle: carboxymethylcellulose (CMC)): 107 % of control

Structure (SMILES): COc1c(Br)c(-c2ccccc2)nc2ccccc12
- T/C [1]: 100 % of control
- T/C [2]: 88 % of control
- T/C [3]: 92 % of control

Structure (SMILES): COc1ccccc1-n1c(=O)c(N=Nc2ccccc2C)c(O)n(-c2ccccc2C)c1=S
- T/C (dose: 37.5 mg/kg/injection, schedule: Q01DX001 (ip), vehicle: Klucel (hydroxypropylcellulose) (HPC)): 106 % of control
- T/C (dose: 75.0 mg/kg/injection, schedule: Q01DX001 (ip), vehicle: Klucel (hydroxypropylcellulose) (HPC)): 106 % of control
- T/C (dose: 150.0 mg/kg/injection, schedule: Q01DX001 (ip), vehicle: Klucel (hydroxypropylcellulose) (HPC)): 108 % of control

Structure (SMILES): COC(=O)C1(C(=O)OC)C2C(=O)C3C(C21)C3(C(=O)OC(C)(C)C)C(=O)OC(C)(C)C (centres undefined)
- T/C [4]: 95 % of control
- T/C [5]: 101 % of control and 98 % of control
- T/C [6]: 92 % of control
- T/C [7]: 102 % of control and 88 % of control
- T/C [8]: 92 % of control
- T/C [9]: 91 % of control and 111 % of control

Structure (SMILES): [O-][n+]1ccccc1Br
- T/C (dose: 50.0 mg/kg/injection, schedule: Q01DX009 (ip), vehicle: water): 104 % of control
- T/C (dose: 100.0 mg/kg/injection, schedule: Q01DX009 (ip), vehicle: water): 98 % of control
- T/C (dose: 100.0 mg/kg/injection, schedule: Q04DX003 (ip), vehicle: water): 95 % of control
- T/C (dose: 150.0 mg/kg/injection, schedule: Q01DX009 (ip), vehicle: water): 95 % of control
- T/C (dose: 200.0 mg/kg/injection, schedule: Q04DX003 (ip), vehicle: water): 115 % of control

Structure (SMILES): CC(=O)Nc1ccn(C2OC(COC(C)=O)C(OC3OC4COC(c5ccccc5)OC4C(OC(C)=O)C3OC(C)=O)C(OC(C)=O)C2OC(C)=O)c(=O)n1 (centres undefined)
- T/C (dose: 22.5 mg/kg/injection, schedule: Q01DX001 (ip), vehicle: carboxymethylcellulose (CMC)): 97 % of control
- T/C (dose: 45.0 mg/kg/injection, schedule: Q01DX001 (ip), vehicle: carboxymethylcellulose (CMC)): 103 % of control
- T/C (dose: 90.0 mg/kg/injection, schedule: Q01DX001 (ip), vehicle: carboxymethylcellulose (CMC)): 92 % of control
- T/C (dose: 180.0 mg/kg/injection, schedule: Q01DX001 (ip), vehicle: carboxymethylcellulose (CMC)): 97 % of control

Structure (SMILES): CC(C)(N)Cc1ccc(Cl)cc1
- T/C (dose: 25.0 mg/kg/injection, schedule: Q04DX003 (ip), vehicle: saline): 111 % of control
- T/C (dose: 50.0 mg/kg/injection, schedule: Q04DX003 (ip), vehicle: saline): 106 % of control
- T/C [10]: 104 % of control
- T/C [11]: 92 % of control

Structure (SMILES): CCn1c(C)nc2cc(N=Cc3ccc(N(CCCl)CCCl)cc3C)ccc21
- T/C (dose: 87.5 mg/kg/injection, schedule: Q04DX002 (ip), vehicle: Klucel (hydroxypropylcellulose) (HPC)): 102 % of control
- T/C [12]: 95 % of control
- T/C (dose: 175.0 mg/kg/injection, schedule: Q04DX002 (ip), vehicle: Klucel (hydroxypropylcellulose) (HPC)): 102 % of control
- T/C (dose: 200.0 mg/kg/injection, schedule: Q04DX002 (ip), vehicle: Klucel (hydroxypropylcellulose) (HPC)): 102 % of control
- T/C (dose: 350.0 mg/kg/injection, schedule: Q04DX002 (ip), vehicle: Klucel (hydroxypropylcellulose) (HPC)): 98 % of control
- T/C (dose: 400.0 mg/kg/injection, schedule: Q04DX002 (ip), vehicle: Klucel (hydroxypropylcellulose) (HPC)): 102 % of control

Structure (SMILES): O=C(c1ccc(Br)cc1)C(O)O
- T/C (dose: 100.0 mg/kg/injection, schedule: Q01DX009 (ip), vehicle: saline): 102 % of control
- T/C [10]: 121 % of control
- T/C (dose: 200.0 mg/kg/injection, schedule: Q01DX009 (ip), vehicle: saline): 97 % of control
- T/C [11]: 101 % of control
- T/C (dose: 400.0 mg/kg/injection, schedule: Q01DX009 (ip), vehicle: saline): 102 % of control
- T/C (dose: 400.0 mg/kg/injection, schedule: Q04DX003 (ip), vehicle: saline): 106 % of control

Structure (SMILES): N=C1C=C(N)C(=O)c2ccccc21
- T/C (dose: 0.78 mg/kg/injection, schedule: Q01DX009 (ip), vehicle: Klucel (hydroxypropylcellulose) (HPC)): 103 % of control
- T/C (dose: 1.56 mg/kg/injection, schedule: Q01DX009 (ip), vehicle: Klucel (hydroxypropylcellulose) (HPC)): 103 % of control
- T/C (dose: 3.13 mg/kg/injection, schedule: Q01DX009 (ip), vehicle: Klucel (hydroxypropylcellulose) (HPC)): 107 % of control
- T/C [4]: 101 % of control

Structure (SMILES): NS(N)(=O)=O
- T/C [13]: 88 % of control
- T/C [14]: 95 % of control
- T/C [15]: 98 % of control
- T/C [16]: 98 % of control

Structure (SMILES): N#Cc1c(N)sc(N)c1C#N
- T/C [17]: 96 % of control
- T/C [18]: 100 % of control
- T/C [19]: 89 % of control
- T/C [20]: 98 % of control
- T/C [21]: 96 % of control
- T/C [22]: 98 % of control

Structure (SMILES): Cc1cc(-c2ccccc2O)nc(N)n1
- T/C (dose: 100.0 mg/kg/injection, schedule: Q04DX002 (ip), vehicle: saline): 90 % of control
- T/C (dose: 200.0 mg/kg/injection, schedule: Q04DX002 (ip), vehicle: saline): 94 % of control
- T/C (dose: 400.0 mg/kg/injection, schedule: Q04DX002 (ip), vehicle: saline): 90 % of control

Structure (SMILES): Cc1ccc(N=C(C(=Nc2ccc(C)cc2)c2ccccc2)c2ccccc2)cc1
- T/C [5]: 91 % of control
- T/C [7]: 90 % of control
- T/C [9]: 88 % of control

Structure (SMILES): CN(c1ccccc1)[N+](=O)[O-]
- T/C (dose: 100.0 mg/kg/injection, schedule: Q01DX001 (ip), vehicle: other): 94 % of control
- T/C (dose: 200.0 mg/kg/injection, schedule: Q01DX001 (ip), vehicle: other): 97 % of control
- T/C (dose: 400.0 mg/kg/injection, schedule: Q01DX001 (ip), vehicle: other): 97 % of control

Structure (SMILES): Cc1ccc(S(=O)(=O)OCCc2ccccc2)cc1
- T/C [4]: 100 % of control
- T/C [5]: 102 % of control
- T/C [6]: 100 % of control
- T/C [7]: 102 % of control
- T/C [8]: 96 % of control
- T/C [9]: 100 % of control

Structure (SMILES): CSC(c1ccccc1Cl)=[N+]1CCCCC1
- T/C [18]: 104 % of control
- T/C [20]: 88 % of control
- T/C [22]: 93 % of control

Structure (SMILES): CC1(C)OC(=O)CC1c1ccc(Cl)cc1 (centres undefined)
- T/C [1]: 98 % of control
- T/C [2]: 93 % of control
- T/C [3]: 106 % of control

Structure (SMILES): CCCCSCC(N)C(=O)O (centres undefined)
- T/C [17]: 96 % of control
- T/C [18]: 92 % of control
- T/C [19]: 96 % of control
- T/C [20]: 94 % of control
- T/C [21]: 98 % of control
- T/C [22]: 103 % of control

Structure (SMILES): c1cc2n(c1)Cc1cc3c(cc1NC2)OCO3
- T/C (dose: 25.0 mg/kg/injection, schedule: Q04DX002 (ip), vehicle: Klucel (hydroxypropylcellulose) (HPC)): 90 % of control
- T/C (dose: 50.0 mg/kg/injection, schedule: Q04DX002 (ip), vehicle: Klucel (hydroxypropylcellulose) (HPC)): 86 % of control
- T/C [12]: 94 % of control

Structure (SMILES): COC(OC)c1[nH]c(=S)[nH]c(=O)c1C
- T/C [5]: 107 % of control
- T/C [7]: 105 % of control
- T/C [9]: 105 % of control

Structure (SMILES): COCC(C)CNC(=S)Nc1ccccc1 (centres undefined)
- T/C [13]: 108 % of control
- T/C [14]: 103 % of control
- T/C [15]: 103 % of control
- T/C [16]: 105 % of control

Structure (SMILES): O=[N+]([O-])c1ccc(C=Nc2ccccc2-c2ccccc2)s1
- T/C [18]: 98 % of control
- T/C [20]: 98 % of control
- T/C [22]: 95 % of control
